Data: PMC7231190, “The Medium-Chain Fatty Acid Receptor GPR84 Mediates Myeloid Cell Infiltration Promoting Steatohepatitis and Fibrosis” (Journal of Clinical Medicine, 2020)
Where a name gives a salt, the structure may show the parent alone.

Assays:
[1] = target: T1, mGPR84 (Mus musculus, UniProt Q8CIM5); assay: cAMP HTRF assay, CHO-K1-mGPR84 cell membrane; type: biochemical
T1 construct: expressed in transfected cells; host or cells: CHO-K1

[2] = system: lung fibrosis mouse models; parameters: method as in earlier work; conditions: two mouse models, therapeutic setting; cited from earlier work
[3] = system: experimental kidney as well as liver fibrosis; parameters: method as in PMID 29454750, PMID 30093459; conditions: cited from earlier work
[4] = system: patients with NASH; parameters: method as in PMID 28833331, PMID 31943293; conditions: early data from a clinical trial in patients with NASH; cited from earlier work
[5] = system: CD115+ monocytes from mouse bone marrow; assay: Transwell chemotaxis of murine bone-marrow monocytes; type: cell-based; conditions: 3-µM embelin, 2 h
Procedure: (§1) Bone marrow of the untreated WT mice at 8 weeks of age was used to isolate the immune cells for transwell migration assays. A single cell suspension was achieved by flushing cold RPMI-1640 through the bones, and grinding the received bone marrow through a 70-µm cell strainer. After lysis of red blood cells by Pharmlyse (BD Biosciences, San Jose, CA, USA), 1 × 10^6 cells in RPMI-1640 were placed in the upper compartment of the 5-µm transwell migration chamber. Migration was analyzed towards stimulation with a 3-µM embelin, a surrogate GPR84 agonist, or a 100-µM myristic acid (an MCFA) dissolved in combination with bovine serum albumin (BSA) in the lower compartment. The chemotactic cytokines, 5 nM CCL2 or 1 nM CXCL1, were used as positive controls for monocyte or neutrophil migration, respectively. After 2 h of incubation at 37 °C, the cells in the lower compartment were analyzed by flow cytometry.

[6] = system: human neutrophils; assay: Human neutrophil chemotaxis towards GPR84 agonists; type: cell-based; conditions: embelin 5 µM
[7] = system: neutrophils from mouse bone marrow; assay: Transwell chemotaxis of murine bone-marrow neutrophils; type: cell-based; conditions: 3-µM embelin, 2 h
Procedure: as §1

[8] = system: C57BL6/J wildtype mice, chronic CCl4; assay: CCl4-induced chronic liver injury / fibrosis in mice; type: in vivo, mouse; conditions: CCl4 IP twice per week 8 weeks, treatment last 4 weeks; CpdA 30 mg/kg q.d., selonsertib 15 mg/kg b.i.d.
[9] = system: C57BL6/J wildtype mice, MCD diet; assay: MCD diet-induced steatohepatitis and fibrosis in mice; type: in vivo, mouse; conditions: MCD diet 8 weeks, treatment last 4 weeks; GPR84 antagonists 30 mg/kg PO q.d., selonsertib 15 mg/kg PO b.i.d.
[10] = system: C57BL6/J wildtype mice, acute CCl4 liver injury; assay: CCl4-induced acute liver injury in mice; type: in vivo, mouse; conditions: 36 h after single IP CCl4
[11] = GPR84 antagonists 30 mg/kg PO, selonsertib 15 mg/kg PO

T1 sequence (Q8CIM5 whole entry): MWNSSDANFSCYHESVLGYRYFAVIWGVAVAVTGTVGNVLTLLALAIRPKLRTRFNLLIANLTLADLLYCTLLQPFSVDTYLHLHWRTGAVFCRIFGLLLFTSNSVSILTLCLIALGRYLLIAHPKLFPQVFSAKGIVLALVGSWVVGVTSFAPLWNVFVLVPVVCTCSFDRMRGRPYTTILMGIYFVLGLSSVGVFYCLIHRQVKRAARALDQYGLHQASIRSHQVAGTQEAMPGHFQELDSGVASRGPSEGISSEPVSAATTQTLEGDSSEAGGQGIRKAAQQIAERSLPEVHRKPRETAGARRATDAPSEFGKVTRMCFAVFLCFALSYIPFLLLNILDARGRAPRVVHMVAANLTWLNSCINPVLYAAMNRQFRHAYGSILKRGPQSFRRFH

With CCCCCCCCCC(=O)O [Capric acid] the “EC80 of agonist in cAMP HTRF assay” value [1] was “cAMP HTRF assay (IC50 nM) CHO-K1-mGPR84 cell membrane, Capric acid (EC80 = 61.7 µM)”.

For O=c1nc(OC[C@@H]2COCCO2)cc2n1CCc1cc(C#CC3CC3)ccc1-2 [GLPG1205], the lung fibrosis [2] is given as “reduced lung fibrosis”.

For CCCCCc1cccc(CC(=O)O)c1 [PBI-4050, 3-pentylbenzeneacetic acid sodium salt], the “experimental kidney and liver fibrosis” value [3] is given as “reduced experimental kidney as well as liver fibrosis”.

For CCCCOCCOc1ccc(-c2ccc3c(c2)/C=C(/C(=O)Nc2ccc([S@@+]([O-])Cc4cncn4CCC)cc2)CCCN3CC(C)C)cc1 [cenicriviroc], the antifibrotic activity [4] is listed as “effective antifibrotic activity”.

For CCCCCCCCCCCC1=C(O)C(=O)C=C(O)C1=O [embelin], the “stimulation of mouse monocyte migration by agonist” value [5] was “stimulated”, the “induction of human neutrophil migration by agonist” value [6] was “strongly induced” and the “attraction of mouse neutrophils by agonist” value [7] was “attracted”.

For Cc1cc(F)c(C(=O)Nc2cccc(-c3nncn3C(C)C)n2)cc1-n1cnc(C2CC2)c1 [selonsertib], the “liver fibrosis (Sirius-Red-staining and hepatic hydroxyproline content)” value [8] was “markedly reduced”, the “neutrophils and liver lymphocytes” value [8] was “largely unaltered” and the “numbers of hepatic macrophages, particularly MoMF” value [8] was “lower numbers”. For the same compound, the “toxic injury according to histology or ALT levels” value [8] was “unaffected”, the “liver fibrosis (Sirius-Red-stained liver sections and hepatic hydroxyproline content)” value [9] was “reduced” and the “extent of acute liver injury (necrotic areas on histology, serum ALT)” value ([10]; GPR84 antagonists 30 mg/kg PO at 0 h, 24 h, selonsertib 15 mg/kg PO at 0, 12, 24 h) was “neither significantly modified”. For the same compound, the “MoMF infiltration (flow cytometry)” value [10, 11] was “but not selonsertib, significantly reduced”, the “hepatic macrophage accumulation (F4/80 immunohistochemistry)” value [10, 11] was “neither significantly modified” and the “hepatic neutrophil infiltration (flow cytometry)” value [10, 11] was “but not selonsertib, significantly reduced”.
